Assay results reported in patent publication US7745646B2, “Bicyclic heteroaryl inhibitors of PDE4” (Kalypsys, Inc., priority 2006, dated 2010).

What follows are compounds tested against T1, PDE4B (Homo sapiens, UniProt Q07343) (assay: Novel coupled PDE/AK bioluminescent assay, PDE4B inhibition). Details: PDE4B catalytic domain.
T1 construct: hex-histidine (His6) (N); made in house
Format: biochemical
Text: We developed a novel coupled PDE/AK bioluminescent high-throughput assay to measure the activity of phosphodiesterases. In the PDE/AK assay, the AMP produced from the hydrolysis of cAMP by phosphodiesterase is converted to adenosine diphosphate (ADP) by the phosphotransferase activity of adenylate kinase (also known as ADK or myokinase). Adenylate kinase will catalyze the conversion of 1 mole of AMP and 1 mole of ATP into 2 moles of ADP. Thus the conversion of AMP to ADP will result in the subsequent loss of ATP. The decrease in ATP concentration can be monitored as light output using luciferase in a reaction that requires ATP to produce light. The PDE/AK assay uses luciferase, which catalyzes the production of light from ATP present in the reaction mix. The amount of emitted light is inversely proportional to the level of AMP present in the reaction. Test compounds are incubated with the phosphodiesterases and phosphodiesterase inhibitors will decrease the rate of cAMP hydrolysis and decrease the subsequent production of AMP.
A novel coupled PDE/AK assay was utilized to measure the inhibitory activity of compounds on PDE isoforms. The catalytic domain of PDE4B was fused to an amino-terminus hex-histidine affinity tag and purified. PDE4B enzyme was incubated with compounds for 10 minutes. Cyclic AMP substrate, ATP and adenylate kinase were then added to the PDE enzyme mix and incubated for 45 minutes at room temperature. A commercial ATP detection assay, Perkin Elmer's easyLite ATP detection reagent, was then added to measure the relative amount of ATP present in the reaction. After 10 minute incubation, the luminescent signal was quantitated with either the Perkin Elmer Viewlux or Molecular Devices Acquest or Analyst.

T1 sequence (Q07343 330-659 limits assumed, species assumed): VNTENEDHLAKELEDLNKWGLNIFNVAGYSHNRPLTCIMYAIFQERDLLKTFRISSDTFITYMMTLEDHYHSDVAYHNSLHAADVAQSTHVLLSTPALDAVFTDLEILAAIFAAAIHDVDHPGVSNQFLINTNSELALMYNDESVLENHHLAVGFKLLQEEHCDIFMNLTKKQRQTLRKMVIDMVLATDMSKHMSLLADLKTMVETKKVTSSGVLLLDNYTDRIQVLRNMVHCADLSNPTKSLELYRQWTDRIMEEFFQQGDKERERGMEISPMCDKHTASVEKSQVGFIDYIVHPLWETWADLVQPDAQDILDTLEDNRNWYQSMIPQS

Q: `COc1ccc2c(Nc3c(Cl)cncc3Cl)cc(=O)oc2c1OCCCCO` [Example 73, 4-(3,5-Dichloropyridin-4-ylamino)-8-(4-hydroxybutoxy)-7-methoxy-2H-chromen-2-one] was tested. Which IC50 did it give?
A: < 1 µM

Q: `COc1ccc2c(Nc3c(Cl)cncc3Cl)cc(=O)oc2c1OCCCCCOc1c(OC)ccc2c(Nc3c(Cl)cncc3Cl)cc(=O)oc12` [Example 74, 8,8′-(Pentane-1,5-diylbis(oxy))bis(4-(3,5-dichloropyridin-4-ylamino)-7-methoxy-2H-chromen-2-one)] was tested. Which IC50 did it give?
A: < 1 µM

Q: Which IC50 does the source give for `COc1ccc2c(Nc3c(Cl)cncc3Cl)cc(=O)oc2c1OCCCCCO[C@@H]1O[C@H](COC(C)=O)[C@@H](OC(C)=O)[C@H](OC(C)=O)[C@H]1OC(C)=O` [Example 75, (2R,3R,4S,5R,6R)-2-(Acetoxymethyl)-6-(5-(4-(3,5-dichloropyridin-4-ylamino)-7-methoxy-2-oxo-2H-chromen-8-yloxy)pentyloxy)tetrahydro-2H-pyran-3,4,5-triyl triacetate] here?
A: < 1 µM

Q: Which IC50 does the source give for `COc1ccc2c(Nc3c(Cl)cncc3Cl)cc(=O)oc2c1OC/C=C\CO` [Example 76, (Z)-4-(3,5-Dichloropyridin-4-ylamino)-8-(4-hydroxybut-2-enyloxy)-7-methoxy-2H-chromen-2-one] here?
A: < 1 µM

Q: Which IC50 does the source give for `COc1ccc2c(Nc3c(Cl)cncc3Cl)cc(=O)oc2c1O[C@@H]1O[C@H](CO)[C@@H](O)[C@H](O)[C@H]1O` [Example 77, 4-(3,5-Dichloropyridin-4-ylamino)-7-methoxy-8-((2S,3R,4S,5S,6R)-3,4,5-trihydroxy-6-(hydroxymethyl)tetrahydro-2H-pyran-2-yloxy)-2H-chromen-2-one] here?
A: > 1 µM

Q: Which IC50 does the source give for `COc1ccc2c(Nc3c(Cl)cncc3Cl)cc(=O)oc2c1OCCCCCC(N)=O` [Example 78, 6-(4-(3,5-Dichloropyridin-4-ylamino)-7-methoxy-2-oxo-2H-chromen-8-yloxy)hexanamide] here?
A: < 1 µM

Q: For `COc1ccc2c(Nc3c(Cl)cncc3Cl)cc(=O)oc2c1OCCCCCCN(C)C` [Example 79, 4-(3,5-Dichloropyridin-4-ylamino)-8-(6-(dimethylamino)hexyloxy)-7-methoxy-2H-chromen-2-one], which IC50 is on record?
A: < 1 µM

Q: How did the IC50 turn out when `COc1ccc2c(Nc3c(Cl)cncc3Cl)cc(=O)oc2c1OCCCCCCCN(C)C` [Example 80, 4-(3,5-Dichloropyridin-4-ylamino)-8-(7-(dimethylamino)heptyloxy)-7-methoxy-2H-chromen-2-one] was run?
A: < 1 µM

Q: `COc1ccc2c(Nc3c(Cl)cncc3Cl)cc(=O)oc2c1OCCCCCCCCN(C)C` [Example 81, 4-(3,5-Dichloropyridin-4-ylamino)-8-(8-(dimethylamino)octyloxy)-7-methoxy-2H-chromen-2-one] was tested. Which IC50 did it give?
A: < 1 µM

Q: How did the IC50 turn out when `COc1ccc2c(Nc3c(Cl)cncc3Cl)c(CCO)c(=O)oc2c1OC1CCCC1` [Example 82, 8-(Cyclopentyloxy)-4-(3,5-dichloropyridin-4-ylamino)-3-(2-hydroxyethyl)-7-methoxy-2H-chromen-2-one] was run?
A: > 1 µM

Q: How did the IC50 turn out when `COc1ccc2c(Nc3c(Cl)cncc3Cl)cc(=O)oc2c1OCCCCCNC(=N)N` [Example 83, 1-(5-(4-(3,5-Dichloropyridin-4-ylamino)-7-methoxy-2-oxo-2H-chromen-8-yloxy)pentyl)guanidine] was run?
A: < 1 µM

Q: How did the IC50 turn out when `COc1ccc2c(Nc3c(Cl)cncc3Cl)cc(=O)oc2c1OCCCCCC(=O)NO` [Example 84, 6-(4-(3,5-Dichloropyridin-4-ylamino)-7-methoxy-2-oxo-2H-chromen-8-yloxy)-N-hydroxyhexanamide] was run?
A: < 1 µM

Q: For `COc1ccc2c(Nc3c(Cl)cncc3Cl)cc(=O)oc2c1OCCCO` [Example 85, 4-(3,5-Dichloropyridin-4-ylamino)-8-(3-hydroxypropoxy)-7-methoxy-2H-chromen-2-one], which IC50 is on record?
A: < 1 µM

Q: For `COc1ccc2c(Nc3c(Cl)cncc3Cl)cc(=O)oc2c1OCCCCOC(C)=O` [Example 86, 4-(4-(3,5-Dichloropyridin-4-ylamino)-7-methoxy-2-oxo-2H-chromen-8-yloxy)butyl acetate], which IC50 is on record?
A: < 1 µM

Q: With `COc1ccc2c(Nc3c(Cl)cncc3Cl)cc(=O)oc2c1OCCCCO[C@@H]1O[C@H](CO)[C@@H](O)[C@H](O)[C@H]1O` [Example 87, 4-(3,5-Dichloropyridin-4-ylamino)-7-methoxy-8-(4-((2R,3R,4S,5S,6R)-3,4,5-trihydroxy-6-(hydroxymethyl)tetrahydro-2H-pyran-2-yloxy)butoxy)-2H-chromen-2-one] as the compound, how does the IC50 read?
A: < 1 µM

Q: Which IC50 does the source give for `COc1ccc2c(Nc3c(Cl)cncc3Cl)cc(=O)oc2c1OCC(=O)NO` [Example 88, 2-(4-(3,5-Dichloropyridin-4-ylamino)-7-methoxy-2-oxo-2H-chromen-8-yloxy)-N-hydroxyacetamide] here?
A: < 1 µM

Q: `CCCN(C)CCCCCOc1c(OC)ccc2c(Nc3c(Cl)cncc3Cl)cc(=O)oc12` [Example 89, 4-(3,5-Dichloropyridin-4-ylamino)-7-methoxy-8-(5-(methyl(propyl)amino)pentyloxy)-2H-chromen-2-one] was tested. Which IC50 did it give?
A: < 1 µM

Q: `CCCCN(C)CCCCCOc1c(OC)ccc2c(Nc3c(Cl)cncc3Cl)cc(=O)oc12` [Example 90, 8-(5-(Butyl(methyl)amino)pentyloxy)-4-(3,5-dichloropyridin-4-ylamino)-7-methoxy-2H-chromen-2-one] was tested. Which IC50 did it give?
A: < 1 µM

Q: For `CCCCCN(C)CCCCCOc1c(OC)ccc2c(Nc3c(Cl)cncc3Cl)cc(=O)oc12` [Example 91, 4-(3,5-Dichloropyridin-4-ylamino)-7-methoxy-8-(5-(methyl(pentyl)amino)pentyloxy)-2H-chromen-2-one], which IC50 is on record?
A: < 1 µM

Q: How did the IC50 turn out when `COc1ccc2c(Nc3c(Cl)cncc3Cl)cc(=O)oc2c1OCCCCCN(C)CCCN(C)C` [Example 92, 4-(3,5-Dichloropyridin-4-ylamino)-8-(5-((3-(dimethylamino)propyl)(methyl)amino)pentyloxy)-7-methoxy-2H-chromen-2-one] was run?
A: < 1 µM

Q: How did the IC50 turn out when `COc1ccc2c(Nc3c(Cl)cncc3Cl)cc(=O)oc2c1OCCCCCN(C)CCN(C)C` [Example 93, 4-(3,5-Dichloropyridin-4-ylamino)-8-(5-((2-(dimethylamino)ethyl)(methyl)amino)pentyloxy)-7-methoxy-2H-chromen-2-one] was run?
A: < 1 µM

Q: `CCOC(=O)CNC(=O)CCCCCOc1c(OC)ccc2c(Nc3c(Cl)cncc3Cl)cc(=O)oc12` [Example 94, Ethyl 2-(6-(4-(3,5-dichloropyridin-4-ylamino)-7-methoxy-2-oxo-2H-chromen-8-yloxy)hexanamido)acetate] was tested. Which IC50 did it give?
A: < 1 µM

Q: With `COC(=O)[C@H](C)NC(=O)CCCCCOc1c(OC)ccc2c(Nc3c(Cl)cncc3Cl)cc(=O)oc12` [Example 95, (S)-Methyl 2-(6-(4-(3,5-dichloropyridin-4-ylamino)-7-methoxy-2-oxo-2H-chromen-8-yloxy)hexanamido)propanoate] as the compound, how does the IC50 read?
A: < 1 µM

Q: How did the IC50 turn out when `COc1ccc2c(Nc3c(Cl)cncc3Cl)cc(=O)oc2c1OCCCCCC(=O)NCC(=O)O` [Example 96, 2-(6-(4-(3,5-Dichloropyridin-4-ylamino)-7-methoxy-2-oxo-2H-chromen-8-yloxy)hexanamido)acetic acid] was run?
A: < 1 µM

Q: With `COc1ccc2c(Nc3c(Cl)cncc3Cl)cc(=O)oc2c1OCCCCCC(=O)N[C@@H](C)C(=O)O` [Example 97, (S)-2-(6-(4-(3,5-Dichloropyridin-4-ylamino)-7-methoxy-2-oxo-2H-chromen-8-yloxy)hexanamido)propanoic acid] as the compound, how does the IC50 read?
A: < 1 µM

Q: For `COc1ccc2c(Nc3c(Cl)cncc3Cl)cc(=O)oc2c1OCCCCCn1ccnn1` [Example 98, 8-(5-(1H-1,2,3-Triazol-1-yl)pentyloxy)-4-(3,5-dichloropyridin-4-ylamino)-7-methoxy-2H-chromen-2-one], which IC50 is on record?
A: < 1 µM

Q: With `COc1ccc2c(Nc3c(Cl)cncc3Cl)cc(=O)oc2c1OCCCCCn1nccn1` [Example 99, 8-(5-(2H-1,2,3-Triazol-2-yl)pentyloxy)-4-(3,5-dichloropyridin-4-ylamino)-7-methoxy-2H-chromen-2-one] as the compound, how does the IC50 read?
A: < 1 µM

Q: `CNCCCCCOc1c(OC)ccc2c(Nc3c(Cl)cncc3Cl)cc(=O)oc12` [Example 100, 4-(3,5-Dichloropyridin-4-ylamino)-7-methoxy-8-(5-(methylamino)pentyloxy)-2H-chromen-2-one] was tested. Which IC50 did it give?
A: < 1 µM

Q: Which IC50 does the source give for `COc1ccc2c(Nc3c(Cl)cncc3Cl)cc(=O)oc2c1OCCCCCn1ncnn1` [Example 101, 8-(5-(2H-Tetrazol-2-yl)pentyloxy)-4-(3,5-dichloropyridin-4-ylamino)-7-methoxy-2H-chromen-2-one] here?
A: < 1 µM

Q: How did the IC50 turn out when `COc1ccc2c(Nc3c(Cl)cncc3Cl)cc(=O)oc2c1OCCCCCn1cnnn1` [Example 102, 8-(5-(1H-Tetrazol-1-yl)pentyloxy)-4-(3,5-dichloropyridin-4-ylamino)-7-methoxy-2H-chromen-2-one] was run?
A: < 1 µM

Q: `COc1ccc2c(Nc3c(Cl)cncc3Cl)cc(=O)oc2c1OCCCCCn1cncn1` [Example 103, 8-(5-(1H-1,2,4-Triazol-1-yl)pentyloxy)-4-(3,5-dichloropyridin-4-ylamino)-7-methoxy-2H-chromen-2-one] was tested. Which IC50 did it give?
A: < 1 µM

Q: Which IC50 does the source give for `COc1ccc2c(Nc3c(Cl)cncc3Cl)cc(=O)oc2c1OCCCCCOP(=O)(O)O` [Example 104, 5-(4-(3,5-Dichloropyridin-4-ylamino)-7-methoxy-2-oxo-2H-chromen-8-yloxy)pentyl dihydrogen phosphate] here?
A: < 1 µM

Q: `CNP(=O)(NC)OCCCCCOc1c(OC)ccc2c(Nc3c(Cl)cncc3Cl)cc(=O)oc12` [Example 105] was tested. Which IC50 did it give?
A: < 1 µM
